According to US6127519A, “Calcitonin derivatives” (Tsumura & Co., priority 1990, dated 2000):
Numbered stars: 1 amine (or outer) side, 2 acyl side, 3 side chain; on linkers, the order of the positions; unused ones are H or OH. Bridge positions count the residues as written; N and C are the ends. Peptide text beside a SMILES is read from it. Suc = O=C(CCC(=O)[*:2])[*:1]

Tested on: calcium concentration in the serum
Assay: Test 1: reduction of calcium level in serum after tail vein administration to rats
Assay type: in vivo, rats of the Wistar strain
Settings: 1 ml/kg tail vein, female Wistar rats
Protocol: Six-weeks-old female rats of the Wistar strain (each group consisting of 4 rats) were used as the test animal, and the peptides of the present invention obtained in the examples given hereinafter were tested at concentrations adjusted with a 1% aqueous solution of sodium acetate (pH 4,0) to which 0.1% bovine serum albumin (BSA) was added. The solution was adjusted to a concentration of 166 μg/ml 830 ng/ml or 83 ng/ml and administered with the tail vein in an amount of 1 ml/kg. The back of the rat was fixed and blood was collected just before the administration, and at predetermined intervals after the administration, from the neck vein. The amount of blood collected each time was 0.3 ml. The sampled blood was subjected to centrifugal separation at 3500 rpm for 20 minutes to separate serum and the calcium content in the separated serum was measured by TBA-380 (supplied by Toshiba) using a Wako calcium-measuring kit (o-cpc method), and the ratio of reduction of the calcium concentration in the serum was determined.

[1] = concentration 83 ng/ml, 0 hour (just before administration)
[2] = concentration 83 ng/ml, 2 hours
[3] = concentration 83 ng/ml, 4 hours
[4] = concentration 83 ng/ml, 6 hours
[5] = concentration 830 ng/ml, 0 hour (just before administration)
[6] = concentration 830 ng/ml, 1 hour
[7] = concentration 830 ng/ml, 2 hours
[8] = concentration 830 ng/ml, 4 hours
[9] = concentration 830 ng/ml, 6 hours

## CC[C@H](C)[C@H](NC(=O)[C@H](C)NC(=O)[C@@H](NC(=O)[C@H](CCC(N)=O)NC(=O)[C@@H]1CCCN1C(=O)[C@H](Cc1ccc(O)cc1)NC(=O)[C@@H](NC(=O)[C@H](CCC(N)=O)NC(=O)[C@H](CC(C)C)NC(=O)[C@H](CCCCN)NC(=O)[C@H](Cc1c[nH]cn1)NC(=O)[C@H](CC(C)C)NC(=O)[C@H](CCC(=O)O)NC(=O)[C@H](CCC(N)=O)NC(=O)[C@H](CO)NC(=O)[C@H](CC(C)C)NC(=O)[C@H](CCCCN)NC(=O)CNC(=O)[C@H](CC(C)C)NC(=O)[C@H](CC(C)C)NC(=O)[C@@H]1CSSC[C@H](N)C(=O)NCC(=O)N[C@@H](CC(N)=O)C(=O)N[C@@H](CC(C)C)C(=O)N[C@@H](CO)C(=O)N[C@@H]([C@@H](C)O)C(=O)N1)[C@@H](C)O)[C@@H](C)O)C(=O)NCC(=O)N[C@H](C(=O)NCC(=O)N[C@@H](C)C(=O)N1CCC[C@H]1C(N)=O)C(C)C [Peptide No. 13] (H-CGNLSTCLLGKLSQELHKLQTYPQTAIGVGAP-NH2; disulfide 1-7)
[1]
  Serum calcium level as percent of pre-dose baseline: 100.0%
Concentration 83 ng/ml, 1 hour
  Serum calcium level as percent of pre-dose baseline: 68.9%
[2]
  Serum calcium level as percent of pre-dose baseline: 70.5%
[3]
  Serum calcium level as percent of pre-dose baseline: 84.4%
[4]
  Serum calcium level as percent of pre-dose baseline: 86.8%
[5]
  Serum calcium level as percent of pre-dose baseline: 100.0%
[6]
  Serum calcium level as percent of pre-dose baseline: 71.3%
[7]
  Serum calcium level as percent of pre-dose baseline: 62.7%
[8]
  Serum calcium level as percent of pre-dose baseline: 58.3%
[9]
  Serum calcium level as percent of pre-dose baseline: 61.8%

## CC[C@H](C)[C@H](NC(=O)[C@H](C)NC(=O)[C@@H](NC(=O)[C@H](CCC(N)=O)NC(=O)[C@@H]1CCCN1C(=O)[C@H](Cc1ccc(O)cc1)NC(=O)[C@@H](NC(=O)[C@H](CCC(N)=O)NC(=O)[C@H](CC(C)C)NC(=O)[C@H](CCCCN)NC(=O)[C@H](Cc1c[nH]cn1)NC(=O)[C@H](CC(C)C)NC(=O)[C@H](CCC(=O)O)NC(=O)[C@H](CCC(N)=O)NC(=O)[C@H](CO)NC(=O)[C@H](CC(C)C)NC(=O)[C@H](CCCCN)NC(=O)CNC(=O)[C@H](CC(C)C)NC(=O)[C@H](CCSC)NC(=O)[C@@H]1CCCCNC(=O)C[C@H](N)C(=O)N[C@@H](CC(N)=O)C(=O)N[C@@H](CC(C)C)C(=O)N[C@@H](CO)C(=O)N[C@@H]([C@@H](C)O)C(=O)N1)[C@@H](C)O)[C@@H](C)O)C(=O)NCC(=O)N[C@H](C(=O)NCC(=O)N[C@@H](C)C(=O)N1CCC[C@H]1C(N)=O)C(C)C [Peptide No. 23] (H-DNLSTKMLGKLSQELHKLQTYPQTAIGVGAP-NH2; lactam 1-6)
[1]
  Serum calcium level as percent of pre-dose baseline: 100.0%
Concentration 83 ng/ml, 1 hour
  Serum calcium level as percent of pre-dose baseline: 73.6%
[2]
  Serum calcium level as percent of pre-dose baseline: 72.2%
[3]
  Serum calcium level as percent of pre-dose baseline: 83.3%
[4]
  Serum calcium level as percent of pre-dose baseline: 82.4%
[5]
  Serum calcium level as percent of pre-dose baseline: 100.0%
[6]
  Serum calcium level as percent of pre-dose baseline: 68.5%
[7]
  Serum calcium level as percent of pre-dose baseline: 61.6%
[8]
  Serum calcium level as percent of pre-dose baseline: 56.9%
[9]
  Serum calcium level as percent of pre-dose baseline: 71.1%

## CC[C@H](C)[C@H](NC(=O)[C@H](C)NC(=O)[C@@H](NC(=O)[C@H](CCC(N)=O)NC(=O)[C@@H]1CCCN1C(=O)[C@H](Cc1ccc(O)cc1)NC(=O)[C@@H](NC(=O)[C@H](CCC(N)=O)NC(=O)[C@H](CC(C)C)NC(=O)[C@H](CCCCN)NC(=O)[C@H](Cc1c[nH]cn1)NC(=O)[C@H](CC(C)C)NC(=O)[C@H](CCC(=O)O)NC(=O)[C@H](CCC(N)=O)NC(=O)[C@H](CO)NC(=O)[C@H](CC(C)C)NC(=O)[C@H](CCCCN)NC(=O)CNC(=O)[C@H](CC(C)C)NC(=O)[C@H](CC(C)C)NC(=O)[C@@H]1CCCCNC(=O)C[C@H](N)C(=O)N[C@@H](CC(N)=O)C(=O)N[C@@H](CC(C)C)C(=O)N[C@@H](CO)C(=O)N[C@@H]([C@@H](C)O)C(=O)N1)[C@@H](C)O)[C@@H](C)O)C(=O)NCC(=O)N[C@H](C(=O)NCC(=O)N[C@@H](C)C(=O)N1CCC[C@H]1C(N)=O)C(C)C [Peptide No. 24] (H-DNLSTKLLGKLSQELHKLQTYPQTAIGVGAP-NH2; lactam 1-6)
[1]
  Serum calcium level as percent of pre-dose baseline: 100.0%
Concentration 83 ng/ml, 1 hour
  Serum calcium level as percent of pre-dose baseline: 71.1%
[2]
  Serum calcium level as percent of pre-dose baseline: 70.7%
[3]
  Serum calcium level as percent of pre-dose baseline: 85.6%
[4]
  Serum calcium level as percent of pre-dose baseline: 80.1%
[5]
  Serum calcium level as percent of pre-dose baseline: 100.0%
[6]
  Serum calcium level as percent of pre-dose baseline: 69.1%
[7]
  Serum calcium level as percent of pre-dose baseline: 61.9%
[8]
  Serum calcium level as percent of pre-dose baseline: 54.4%
[9]
  Serum calcium level as percent of pre-dose baseline: 53.0%

## CC[C@H](C)[C@H](NC(=O)[C@H](C)NC(=O)[C@@H](NC(=O)[C@H](CCC(N)=O)NC(=O)[C@@H]1CCCN1C(=O)[C@H](Cc1ccc(O)cc1)NC(=O)[C@@H](NC(=O)[C@H](CCC(N)=O)NC(=O)[C@H](CC(C)C)NC(=O)[C@H](CCCCN)NC(=O)[C@H](Cc1c[nH]cn1)NC(=O)[C@H](CC(C)C)NC(=O)[C@H](CCC(=O)O)NC(=O)[C@H](CCC(N)=O)NC(=O)[C@H](CO)NC(=O)[C@H](CC(C)C)NC(=O)[C@H](CCCCN)NC(=O)CNC(=O)[C@H](CC(C)C)NC(=O)[C@H](CC(C)C)NC(=O)[C@@H]1CCCCNC(=O)C[C@H](NC(C)=O)C(=O)N[C@@H](CC(N)=O)C(=O)N[C@@H](CC(C)C)C(=O)N[C@@H](CO)C(=O)N[C@@H]([C@@H](C)O)C(=O)N1)[C@@H](C)O)[C@@H](C)O)C(=O)NCC(=O)N[C@H](C(=O)NCC(=O)N[C@@H](C)C(=O)N1CCC[C@H]1C(N)=O)C(C)C [Peptide No. 25] (Ac-DNLSTKLLGKLSQELHKLQTYPQTAIGVGAP-NH2; lactam 1-6)
[1]
  Serum calcium level as percent of pre-dose baseline: 100.0%
Concentration 83 ng/ml, 1 hour
  Serum calcium level as percent of pre-dose baseline: 76.9%
[2]
  Serum calcium level as percent of pre-dose baseline: 67.6%
[3]
  Serum calcium level as percent of pre-dose baseline: 66.7%
[4]
  Serum calcium level as percent of pre-dose baseline: 71.3%
[5]
  Serum calcium level as percent of pre-dose baseline: 100.0%
[6]
  Serum calcium level as percent of pre-dose baseline: 73.4%
[7]
  Serum calcium level as percent of pre-dose baseline: 64.3%
[8]
  Serum calcium level as percent of pre-dose baseline: 51.8%
[9]
  Serum calcium level as percent of pre-dose baseline: 44.3%

## CC[C@H](C)[C@H](NC(=O)[C@H](C)NC(=O)[C@@H](NC(=O)[C@H](CCC(N)=O)NC(=O)[C@@H]1CCCN1C(=O)[C@H](Cc1ccc(O)cc1)NC(=O)[C@@H](NC(=O)[C@H](CCC(N)=O)NC(=O)[C@H](CC(C)C)NC(=O)[C@H](CCCCN)NC(=O)[C@H](Cc1c[nH]cn1)NC(=O)[C@H](CC(C)C)NC(=O)[C@H](CCC(=O)O)NC(=O)[C@H](CCC(N)=O)NC(=O)[C@H](CO)NC(=O)[C@H](CC(C)C)NC(=O)[C@H](CCCCN)NC(=O)CNC(=O)[C@H](CC(C)C)NC(=O)[C@H](CC(C)C)NC(=O)[C@@H]1CCCCNC(=O)CCC(=O)N[C@@H](CC(N)=O)C(=O)N[C@@H](CC(C)C)C(=O)N[C@@H](CO)C(=O)N[C@@H]([C@@H](C)O)C(=O)N1)[C@@H](C)O)[C@@H](C)O)C(=O)NCC(=O)N[C@H](C(=O)NCC(=O)N[C@@H](C)C(=O)N1CCC[C@H]1C(N)=O)C(C)C [Peptide No. 26] (NLSTKLLGKLSQELHKLQTYPQTAIGVGAP-NH2; linker N-5 via Suc)
[1]
  Serum calcium level as percent of pre-dose baseline: 100.0%
Concentration 83 ng/ml, 1 hour
  Serum calcium level as percent of pre-dose baseline: 78.9%
[2]
  Serum calcium level as percent of pre-dose baseline: 67.6%
[3]
  Serum calcium level as percent of pre-dose baseline: 70.4%
[4]
  Serum calcium level as percent of pre-dose baseline: 75.2%
[5]
  Serum calcium level as percent of pre-dose baseline: 100.0%
[6]
  Serum calcium level as percent of pre-dose baseline: 73.9%
[7]
  Serum calcium level as percent of pre-dose baseline: 62.9%
[8]
  Serum calcium level as percent of pre-dose baseline: 52.1%
[9]
  Serum calcium level as percent of pre-dose baseline: 48.2%
